From US5508174A, “Method and micro roller bottle for in vitro exposure of cells to volatile chemicals” (The United States of America as represented by the …, priority 1993, dated 1996)

Test system: Primary hepatocytes
Assay: in vitro exposure of primary hepatocytes to volatile HCFCs, enzyme leakage (LDH and AST)
Assay type: cell-based
Conditions: 10,000, 100,000 and 500,000 ppm, 24 hours
From the text: Any adherent cell line or adherent primary cell type can be used in this system. Adherent cell lines may attach to glass walls, i.e., the inner surface of a glass body 10. When cells reach confluency, exposure can bc initiated. […] This can be accomplished by attaching primary cells to a sterile strip of inert mesh 38, e.g., nylon mesh, precoated with an attachment factor such as collagen. The mesh is carefully rolled and placed into body 10 through one of the openings 14 or 16. After the mesh is unrolled within body 10, the openings 14 and 1.6 are sealed using the septa or the valve 22 previously described.
The cells to be tested are washed and isolated using known procedures. The washed isolated cells are resuspended at a suitable cell density, e.g., about 10^6 to 10^7 /ml, in a suitable culture medium, e.g., Williams E or Leibovitz's-15. The culture medium may be supplemented with a suitable media supplement, e.g., fetal calf serum, dexamethasone, etc. The suspended cells are distributed over the mesh or over the inner surface of device 10. The cells are allowed to attach for a suitable period. If the mesh is used, it is rolled into a narrow tube, inserted into device 10 and allowed to unroll. Culture medium is added to the device 10 to a desired quantity. Scaling means 18 and 20 are inserted into openings 14 and 16. […]
A syringe needle is inserted through one of the sealing means 18 or 20 to provide egress for excess atmosphere within device 10. […] A sample of the atmosphere within device 10 is taken from each device prepared for testing and analyzed by gas-chromatography (GC) to determine the actual concentration of the volatile compound in the device.
The thus-prepared test device is placed on a roller apparatus in an incubator at a suitable temperature. […] At the termination exposure, a second sample of the atmosphere should be taken and analyzed by GC to ensure that the volatile compound is present at a concentration of at least about 95% of that measured initially. […]

SMILES	relative rank ordering of toxicity, based on lactate dehydrogenase (LDH) and S-amino-transferase (AST) enzyme leakages
FC(F)(F)C(Cl)Cl [HCFC-123, 2,2-dichloro-1,1,1-trifluoroethane]	HCFC-123>HCFC-123/142b>HCFC-124>HCFC-142b
FC(Cl)C(F)(F)F (stereo not drawn) [HCFC-124, 1-chloro-1,2,2,2-trifiuoroethane]	HCFC-123>HCFC-123/142b>HCFC-124>HCFC-142b
CC(F)(F)Cl [HCFC-142b, 1-chloro-1,1-difluoroethane]	HCFC-123>HCFC-123/142b>HCFC-124>HCFC-142b
